The values below come from patent publication US9617289B2, “RSV antiviral compounds” (JANSSEN R&D IRELAND, priority 2012, dated 2017).

For series [1], the system named is rgRSV224 virus. The experiment in a line: Antiviral activity: inhibition of rgRSV224 (GFP-expressing RSV) replication in HeLa cells. The format is cell-based, respiratory syncytial virus. As to conditions: human respiratory syncytial virus, HeLa, 72 h, read-out: RSV-wt_pEC50, rgRSV224 (MOI=0.02) in HeLa cells, GFP expression three days post-virus exposure. The gist of the method: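 HeLa cells infected with GFP-expressing rgRSV224 at MOI 0.02 alongside 4-fold compound dilutions in duplicate (0.5% DMSO). Incubated 3 days at 37 °C; EC50 taken as 50% inhibition of GFP expression by laser microscopy. CC50 measured in parallel uninfected cells by ATP content after 3 days; SI = CC50/EC50.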

Structures can show the parent of a compound that is named as a salt.

Broadly, the melting point is the temperature of the solid-liquid transition. `N#CCCCn1c(CN2C(=O)C3(CCNCC3)c3ccncc32)cc2cc(Cl)ccc21` (as salt: hydrochloride) [Compound 78, 4-(5-chloro-2-((2′-oxospiro[piperidine-4,3′-pyrrolo[2,3-c]-pyridin]-1′(2′H)-yl)methyl)-1H-indol-1-yl)butanenitrile hydrochloride] returned a melting point of 82.02 °C. For `CS(=O)(=O)CCCn1c(CN2c3ccccc3[C@]3(C[C@@H](OC(=O)N4CCOCC4)C3)C2=O)nc2cc(Cl)ccc21` [Compound 133, (1r,3r)-1′-((5-chloro-1-(3-(methylsulfonyl)propyl)-1H-benzo[d]imidazol-2-yl)methyl)-2′-oxospiro[cyclobutane-1,3′-indolin]-3-yl morpholine-4-carboxylate], the EC50 in series [1] was 0.141 nM.

Consider `CS(=O)(=O)CCCn1c(CN2C(=O)C3(CNC3)c3ccccc32)cc2cc(Cl)ccc21` [Compound 134, 1′-({5-Chloro-1-[3-(methylsulfonyl)propyl]-1H-indol-2-yl}methyl)spiro[azetidine-3,3′-indol]-2′(1′H)-one], for which the EC50 in series [1] was 2 nM. For `COC(=O)N[C@H]1C[C@]2(C1)C(=O)N(Cc1nc3cc(Cl)ccc3n1CCCC#N)c1ccccc12` [Compound 135, methyl ((1s,3s)-1′-((5-chloro-1-(3-cyanopropyl)-1H-benzo[d]imidazol-2-yl)methyl)-2′-oxospiro[cyclobutane-1,3′-indolin]-3-yl)carbamate], the EC50 in series [1] was 0.0955 nM. With `COC(=O)N[C@H]1C[C@@]2(C1)C(=O)N(Cc1nc3cc(Cl)ccc3n1CCCC#N)c1ccccc12` [Compound 136, methyl ((1r,3r)-1′-((5-chloro-1-(3-cyanopropyl)-1H-benzo[d]imidazol-2-yl)methyl)-2′-oxospiro[cyclobutane-1,3′-indolin]-3-yl)carbamate], in series [1], the EC50 is 0.245 nM.

For `N#CCCCn1c(CN2C(=O)C3(CN(C(=O)C4(O)CC4)C3)c3ccccc32)cc2cc(Cl)ccc21` [Compound 137], the EC50 in series [1] is 0.107 nM. `CC(C)(O)C(=O)N1CCC2(C1)C(=O)N(Cc1nc3cc(Cl)ccc3n1CCCS(C)(=O)=O)c1ccccc12` (stereo not drawn) [Compound 138, 1-((5-chloro-1-(3-(methylsulfonyl)propyl)-1H-benzo[d]imidazol-2-yl)methyl)-1′-(2-hydroxy-2-methylpropanoyl)spiro[indoline-3,3′-pyrrolidlin]-2-one]: the EC50 in series [1] is 2.14 nM. Turning to `N#CCCCn1c(CN2c3ccccc3[C@]3(C[C@@H](N)C3)C2=O)nc2cc(Cl)ccc21` [Compound 148, 4-(2-(((1r,3r)-3-amino-2′-oxospiro[cyclobutane-1,3′-indolin]-1′-yl)methyl)-5-chloro-1H-benzo[d]imidazol-1-yl)butanenitrile], the EC50 in series [1] was 4.68 nM.

Take `N#CCCCn1c(CN2c3ccccc3[C@]3(C[C@H](N)C3)C2=O)nc2cc(Cl)ccc21` [Compound 149, 4-(2-(((1s,3s)-3-amino-2′-oxospiro[cyclobutane-1,3′-indolin]-1′-yl)methyl)-5-chloro-1H-benzo[d]imidazol-1-yl)butanenitrile]: the EC50 in series [1] is 1.2 nM. As to `CC(=O)OCCOC(=O)N1CCC2(CC1)C(=O)N(Cc1cc3cc(Cl)ccc3n1CCCC#N)c1cnccc12` [Compound 150, 2-(Acetyloxy)ethyl 1′-{[5-chloro-1-(3-cyanopropyl)-1H-indol-2-yl]methyl}-2′-oxo-1′,2′-dihydro-1H-spiro[piperidine-4,3′-pyrrolo-[2,3-c]pyridine]-1-carboxylate], the EC50 in series [1] is 0.049 nM.

Consider `CC(C)(O)C(=O)N1CC2(C1)C(=O)N(Cc1cc3cc(Cl)ccc3n1CCCS(C)(=O)=O)c1ccccc12` [Compound 152, 1′-({5-Chloro-1-[3-(methylsulfonyl)propyl]-1H-indol-2-yl}methyl)-1-(2-hydroxy-2-methylpropanoyl)spiro[azetidine-3,3′-indol]-2′(1′H)-one], for which, in series [1], the EC50 is 1.58 nM. In the case of `CC(C)(O)C(=O)N1CCC2(CC1)C(=O)N(Cc1c(C(N)=O)c3cc(Cl)ccc3n1CCCCF)c1cnccc12` [Compound 153, 5-Chloro-1-(4-fluorobutyl)-2-{[1-(2-hydroxy-2-methylpropanoyl)-2′-oxospiro[piperidine-4,3′-pyrrolo[2,3-c]pyridin]-1′(2′H)-yl]methyl}-1H-indole-3-carboxamide], the EC50 in series [1] is 0.0575 nM. In the case of `CC(C)(O)C(=O)N1CCC2(C1)C(=O)N(Cc1nc3cc(Cl)ccc3n1CCCC#N)c1ccccc12` (stereo not drawn) [Compound 154, 4-(5-Chloro-2-{[1′-(2-hydroxy-2-methylpropanoyl)-2-oxospiro[indole-3,3′-pyrrolidin]-1(2H)-yl]methyl}-1H-benzimidazol-1-yl)butanenitrile], the EC50 in series [1] was 1.17 nM. Turning to `CC(C)(O)C(=O)N1CCC2(CC1)C(=O)N(Cc1cc3cc(Cl)ccc3n1CCCCO)c1cnccc12` [Compound 155, 1′-{[5-Chloro-1-(4-hydroxybutyl)-1H-indol-2-yl]methyl}-1 - (2-hydroxy-2-methylpropanoyl)spiro[piperidine-4,3′-pyrrolo[2,3-c]pyridin]-2′(1′H)-one], the EC50 in series [1] is 0.17 nM. On to `CC(C)(C)OC(=O)N1CCC2(CC1)C(=O)N(Cc1c(C(N)=O)c3cc(Cl)ccc3n1CCCCF)c1cnccc12` [Compound 156, tert-Butyl 1′-{[3-carbamoyl-5-chloro-1-(4-fluorobutyl)-1H-indol-2-yl]methyl}-2′-oxo-1′,2′-dihydro-1H-spiro[piperidine-4,3′-pyrrolo[2,3-c]pyridine]-1-carboxylate], for which the EC50 in series [1] is 0.0676 nM. `CC(C)(C)OC(=O)N1CCC2(C1)C(=O)N(Cc1nc3cc(Cl)ccc3n1CCCC#N)c1ccccc12` (stereo not drawn) [Compound 157, tert-Butyl 1-{[5-chloro-1-(3-cyanopropyl)-1H-benzimidazol-2-yl]methyl}-2-oxo-1,2-dihydro-1′H-spiro[indole-3,3′-pyrrolidine]-1′-carboxylate]: the EC50 in series [1] was 3.98 nM. Turning to `O=C1CC2(C1)C(=O)N(Cc1nc3cc(Cl)ccc3n1CCCCF)c1ccccc12` [Compound 158, 1-{[5-Chloro-1-(4-fluorobutyl)-1H-benzimidazol-2-yl]methyl}-3H-spiro[cyclobutane-1,3′-indole]-2′,3(1′H)-dione], the EC50 in series [1] was 0.575 nM. Same read-out and setting: the same measure for `O=C1N(Cc2cc3cc(Cl)ccc3n2CCCCF)c2cnccc2C12CCNCC2` [Compound 162]: 4.57 nM; for `CC(C)(C)OC(=O)N1CC2(C1)C(=O)N(Cc1cc3cc(Cl)ccc3n1CCCS(C)(=O)=O)c1ccccc12` [Compound 163, tert-Butyl 1′-({5-chloro-1-[3-(methylsulfonyl)propyl]-1H-indol-2-yl}methyl)-2′-oxo-1′,2′-dihydro-1H-spiro[azetidine-3,3′-indole]-1-carboxylate]: 0.2 nM; for `N#CCCCn1c(CN2C(=O)C3(CN(C(=O)C(O)CO)C3)c3ccccc32)cc2cc(Cl)ccc21` (stereo not drawn) [Compound 165, 4-(5-chloro-2-((1-(2,3-dihydroxypropanoyl)-2′-oxospiro[azetidine-3,3′-indolin]-1′-yl)methyl)-1H-indol-1-yl)butanenitrile]: 0.145 nM. Regarding `O=C(C(O)CO)N1CCC2(CC1)C(=O)N(Cc1cc3cc(Cl)ccc3n1CCCCF)c1cnccc12` (stereo not drawn) [Compound 167, 1′-{[5-Chloro-1-(4-fluorobutyl)-1H-indol-2-yl]methyl}-1-(2,3-dihydroxypropanoyl)spiro[piperidine-4,3′-pyrrolo[2,3-c]pyridin]-2′(1′H)-one], the EC50 in series [1] is 0.123 nM. Regarding `CNC(=O)O[C@H]1C[C@@]2(C1)C(=O)N(Cc1nc3cc(Cl)ccc3n1CCCC#N)c1ccccc12` [Compound 168, (1r,3r)-1′-((5-chloro-1-(3-cyanopropyl)-1H-benzo[d]imidazol-2-yl)methyl)-2′-oxospiro[cyclobutane-1,3′-indolin]-3-yl methylcarbamate], the EC50 in series [1] is 0.0347 nM.

As for `CC(=O)NS(=O)(=O)N1CC2(C1)C(=O)N(Cc1nc3cc(Cl)ccc3n1CCCC#N)c1ccccc12` [Compound 170, N-[(1′-{[5-Chloro-1-(3-cyanopropyl)-1H-benzimidazol-2-yl]methyl}-2′-oxo-1′,2′-dihydro-1H-spiro[azetidine-3,3′-indol]-1-yl)sulfonyl]acetamide], in series [1], the EC50 was 0.269 nM. The same measure, in the same setting: the same measure for `N#CCCCn1c(CN2c3ccccc3[C@]3(C[C@@H](OC(=O)NC4CC4)C3)C2=O)nc2cc(Cl)ccc21` [Compound 173, (1r,3r)-1′-((5-chloro-1-(3-cyanopropyl)-1H-benzo[d]imidazol-2-yl)methyl)-2′-oxospiro[cyclobutane-1,3′-indolin]-3-yl cyclopropylcarbamate]: 0.0224 nM; for `CC1CC2(CC(C)O1)C(=O)N(Cc1nc3cc(Cl)ccc3n1CCCS(C)(=O)=O)c1cnccc12` (stereo not drawn) [Compound 174, 1′-({5-Chloro-1-[3-(methylsulfonyl)propyl]-1H-benzimidazol-2-yl}methyl)-2,6-dimethyl-2,3,5,6-tetrahydrospiro[pyran-4,3′-pyrrolo[2,3-c]pyridin]-2′(1′H)-one]: 17.8 nM. The same measure, in the same setting: under `CC(C)(O)C(=O)N1CC2(C1)C(=O)N(Cc1nc3cc(Cl)ccc3n1CCCCO)c1ccccc12` [Compound 175, 1′-{[5-Chloro-1-(4-hydroxybutyl)-1H-benzimidazol-2-yl]methyl}-1-(2-hydroxy-2-methylpropanoyl)spiro[azetidine-3,3′-indol]-2′(1′H)-one] stands 0.0741 nM; under `O=C(NS(=O)(=O)N1CCC2(CC1)C(=O)N(Cc1cc3cc(Cl)ccc3n1CCCCF)c1cnccc12)C1CC1` [Compound 184, N-[(1′-{[5-Chloro-1-(4-fluorobutyl)-1H-indol-2-yl]methyl}-2′-oxo-1′,2′-dihydro-1H-spiro[piperidine-4,3′-pyrrolo[2,3-c]pyridin]-1-yl)sulfonyl]cyclopropanecarboxamide], 0.219 nM.
